Measured values from patent US10912841B2, “Antibody-drug-conjugate and its use for the treatment of cancer” (PIERRE FABRE MEDICAMENT, priority 2014, dated 2021).
Where a SMILES comes first, the peptide text is derived from it. [ ]: non-standard residue; d: D form. The star is where a group is joined. Dolaproine = CO[C@@H]([C@@H]1CCCN1)[C@@H](C)C(=O)O; Dil = CC[C@H](C)[C@H](NC)[C@@H](CC(=O)O)OC; X2 = CC(C)[C@@H](C(=O)*)N(C)CCc1ccc(O)cc1

What was measured:
[1] = system: A549 cells; experiment: ATPLITE antiproliferative assay, A549; type: cell-based; settings: Homo sapiens, 72 h drug treatment
Procedure: (§1) A549 (Non Small Cell Lung Cancer—ATCC® CCL-185™) and MDA-MB-231 (breast adenocarcinoma—ATCC® HTB-26m) cells were cultured in Minimum Essential Medium Eagle (MEM) with 5% fetal calf serum (FCS) and Dulbecco's modified Eagle Medium (DMEM) with 10% FCS respectively. MCF7 (breast ductal carcinoma—ATCC® HTB-22m) and SN-12C (kidney carcinoma—ATCC) cells were maintained in RPMI1640 medium (without phenol red for MCF7 cells) containing 10% FCS. All the media were supplemented with fungizone (1.25 μg/mL) and penicillin-streptomycin (100 U/100 μg/mL). Cells were cultured under standard conditions in an incubator at 37° C., 5% CO2 and 95% atmospheric humidity.
(§2) Selected drugs were investigated for their antiproliferative activity using an ATPLITE® proliferation assay (Perkin Elmer, Villebon sur Yvette, France) on a comprehensive panel of 4 cell lines. […] On day 4, cell viability was evaluated by dosing the ATP released by viable cells. The number of viable cells was analyzed in comparison with the number of solvent treated cells. The EC50 values were determined with curve fitting analysis (non linear regression model with a sigmoidal dose response, variable hill slope coefficient), performed with the algorithm provided by the […]® Software ([…]® Software Inc., CA, USA).

[2] = system: MDA-MB-231 cells; experiment: ATPLITE antiproliferative assay, MDA-MB-231; type: cell-based; settings: Homo sapiens, 72 h drug treatment
Procedure: as §1, §2

**Q.** For CC[C@H](C)[C@@H]([C@@H](CC(=O)N1CCC[C@H]1[C@H](OC)[C@@H](C)C(=O)N[C@@H](Cc1ccccc1)C(=O)OC)OC)N(C)C(=O)[C@@H](NC(=O)[C@H](C(C)C)N(C)CCc1ccc(O)cc1)C(C)C [Compound 27, methyl (S)-2-((2R,3R)-3-((S)-1-((3R,4S,5S)-4-((S)-2-((S)-2-((4-hydroxyphenethyl)(methyl)amino)-3-methylbutanamido)-N,3-dimethylbutanamido)-3-methoxy-5-methylheptanoyl)pyrrolidin-2-yl)-3-methoxy-2-methylpropanamido)-3-phenylpropanoate, trifluoroacetic acid] (X2-V[Dil][Dolaproine]F-OMe), which EC50 [1] is on record?
**A.** 0.086 nM

**Q.** And the EC50 [2]?
**A.** 0.12 nM
